According to US6306890A, “Esters derived from indolealkanols and novel amides derived from indolealkylamides that are selective COX-2 inhibitors” (Vanderbilt University, priority 1999, dated 2001):
Read-outs that look alike come from different tables or passages of the source.

Assays:
ovine COX-1 = target: T1, ovine COX-1 (Ovis aries, UniProt P05979); test: Inhibition of ovine COX-1, TLC assay ([1-14C]-arachidonic acid), time-dependent
T1 sequence (P05979 25-600): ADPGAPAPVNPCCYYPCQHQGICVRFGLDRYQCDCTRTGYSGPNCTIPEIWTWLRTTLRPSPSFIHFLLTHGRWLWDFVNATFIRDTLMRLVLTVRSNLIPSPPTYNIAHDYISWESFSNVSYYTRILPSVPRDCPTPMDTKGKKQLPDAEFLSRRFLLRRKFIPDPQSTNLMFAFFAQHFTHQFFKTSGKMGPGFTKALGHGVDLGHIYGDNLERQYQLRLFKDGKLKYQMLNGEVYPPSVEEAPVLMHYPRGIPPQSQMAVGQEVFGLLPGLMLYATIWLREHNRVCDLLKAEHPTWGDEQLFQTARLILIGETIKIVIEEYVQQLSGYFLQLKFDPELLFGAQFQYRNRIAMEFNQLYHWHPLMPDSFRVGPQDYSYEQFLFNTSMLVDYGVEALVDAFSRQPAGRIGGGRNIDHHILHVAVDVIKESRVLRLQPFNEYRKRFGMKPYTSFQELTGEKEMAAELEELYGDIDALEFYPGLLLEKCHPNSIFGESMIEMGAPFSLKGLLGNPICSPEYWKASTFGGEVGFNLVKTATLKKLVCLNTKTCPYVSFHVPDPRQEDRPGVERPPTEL

human COX-2 = target: T2, human COX-2 (Homo sapiens, UniProt P35354); test: Inhibition of purified human COX-2, TLC assay ([1-14C]-arachidonic acid), time-dependent; details: for Selectivity: COX-2 selectivity ratio, IC50 COX-1 / IC50 COX-2
T2 sequence (P35354 18-604): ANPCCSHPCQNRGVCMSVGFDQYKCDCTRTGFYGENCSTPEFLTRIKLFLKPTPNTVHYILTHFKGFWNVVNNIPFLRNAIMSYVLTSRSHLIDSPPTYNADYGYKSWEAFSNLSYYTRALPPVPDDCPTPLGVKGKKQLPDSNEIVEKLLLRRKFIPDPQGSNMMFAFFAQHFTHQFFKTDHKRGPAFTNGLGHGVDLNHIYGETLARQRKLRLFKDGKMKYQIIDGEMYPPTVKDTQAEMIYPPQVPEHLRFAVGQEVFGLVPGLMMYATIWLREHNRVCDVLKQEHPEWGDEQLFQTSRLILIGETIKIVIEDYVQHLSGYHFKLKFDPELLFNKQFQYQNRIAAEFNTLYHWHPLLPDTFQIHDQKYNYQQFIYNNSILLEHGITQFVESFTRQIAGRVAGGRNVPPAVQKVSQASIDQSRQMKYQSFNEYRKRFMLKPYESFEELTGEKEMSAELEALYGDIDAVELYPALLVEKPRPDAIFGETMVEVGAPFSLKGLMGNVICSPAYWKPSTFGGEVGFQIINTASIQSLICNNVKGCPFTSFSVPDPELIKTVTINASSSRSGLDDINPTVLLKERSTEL

[1] = target: T3, COX-2 in activated RAW264.7 macrophages (Mus musculus, UniProt Q05769); test: Inhibition of COX-2 activity (PGD2 production) in intact activated RAW264.7 cells; format: cell-based, murine; details: FIG. 1; inhibitor 0-1 μM, 30 minutes at 37° C.; LPS + IFN-γ activated
T3 construct: PGD2 from [1-14C]-arachidonic acid by TLC
T3 sequence (Q05769 18-604): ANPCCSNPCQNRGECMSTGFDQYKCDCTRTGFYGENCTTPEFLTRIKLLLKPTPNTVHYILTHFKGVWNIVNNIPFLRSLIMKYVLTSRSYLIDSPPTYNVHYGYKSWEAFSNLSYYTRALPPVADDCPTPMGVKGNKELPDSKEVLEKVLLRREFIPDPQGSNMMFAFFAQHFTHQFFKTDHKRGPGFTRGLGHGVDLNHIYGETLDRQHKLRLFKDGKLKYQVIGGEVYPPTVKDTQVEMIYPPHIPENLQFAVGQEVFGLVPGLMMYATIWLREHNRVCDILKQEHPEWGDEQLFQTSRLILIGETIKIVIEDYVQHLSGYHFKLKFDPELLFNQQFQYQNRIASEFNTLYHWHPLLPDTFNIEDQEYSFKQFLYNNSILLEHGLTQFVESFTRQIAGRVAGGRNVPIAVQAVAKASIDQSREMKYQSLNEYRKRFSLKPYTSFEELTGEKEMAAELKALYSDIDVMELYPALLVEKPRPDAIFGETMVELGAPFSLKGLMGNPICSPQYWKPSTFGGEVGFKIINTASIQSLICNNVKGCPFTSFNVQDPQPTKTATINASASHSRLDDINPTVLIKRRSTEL
Description: The ability of these compounds to inhibit COX-2 in intact cells was assayed in activated RAW264.7 macrophages in which COX-2 activity was induced by pathologic stimuli. The macrophages were treated with lipopolysaccharide ([…]) and γ-interferon (10 U/mL) for 7.5 hours to induce COX-2 and then treated with several concentrations of each of inventive Compounds 5c, 5e, and 9e.
More specifically, low passage number murine RAW264.7 cells were grown in DMEM containing 10% heat-inactivated FBS. Cells (6.2×10^6 cells/T25 flask) were activated with 500 ng/mL LPS and 10 units/mL IFN-γ in serum-free DMEM for 7 hours. Vehicle (DMSO) or inhibitor (inventive Compound 5c, 5e, or 9e) in DMSO (0-1 μM) was added for 30 minutes at 37° C. […] Aliquots (200 μL) were removed into termination solution and total products were quantitatively determined by the TLC assay as described earlier.

[2] = tested on: carrageenan-induced rat foot paw edema; test: Carrageenan-induced rat foot paw edema assay; format: in vivo, rat (male Sprague Dawley); details: FIG. 2 / FIG. 3; gavage 1 hour after carrageenan, paw volume at 3 hour post-injection
Description: All procedures were performed according to approved animal protocols (#M/98/251, Vanderbilt University Animal Care Committee). Male Sprague Dawley rats (Harlan Sprague Dawley, Indianapolis, Ind.) (150-175 grams) were fasted for 18 hours and then injected with λ-carrageenan (0.1 ml of a 1% suspension in 0.85% saline, Fluka BioChemika, Milwaukee, Wis.) into the right hind footpad. After 1 hour, 90 μl inhibitor (either Compound 5c or Compound 9e) in DMSO was added to 6 ml corn oil, and the rats were gavaged with 0.5 ml corn oil containing DMSO or containing DMSO and inhibitor.
The ipsilateral footpad volume was measured with a water displacement plethysmometer (Ugo Basile, Italy, distributed by Stoelting Co., Wood Dale, Ill.) at 3 hour post-injection and compared to the initial pre-injection paw volume. Inhibitor concentrations were varied as shown in FIG. 2 (Compound 5c) and FIG. 3 (Compound 9e), with n=6 animals per group in duplicate experiments.

| Compound | IC50 (ovine COX-1) | IC50 (human COX-2) | Selectivity (human COX-2; Table 1 esters) | also measured |
| --- | --- | --- | --- | --- |
| COc1ccc2c(c1)c(CCOC(=O)c1ccc(C)cc1)c(C)n2C(=O)c1ccc(Cl)cc1 [Compound 5b, N-(pchlorobenzoyl)-5-methoxy-2-methylindole-ethyl-(p-methyl)benzoate] | > 66000 nM | 50 nM | > 1320 | – |
| CCCCC(=O)OCCc1c(C)n(C(=O)c2ccc(Cl)cc2)c2ccc(OC)cc12 [Compound 5a, N-(p-chlorobenzoyl)-5-methoxy-2-methylindole-3-ethyl-valerate] | – | – | > 1015 | IC50 (ovine COX-1; read-out: IC50 COX-1, Table 1 esters, ovine COX-1 (44 nM) preincubated 25° C. 15 min, [1-14C]-arachidonic acid 50 μM, 37° C., 30 seconds, duplicate): > 66000 nM; IC50 (human COX-2; read-out: IC50 COX-2, Table 1 esters, time-dependent inhibition, [1-14C]-arachidonic acid 50 μM, 37° C., 30 seconds, duplicate): 650 nM |
| N-(p-chlorobenzoyl)-5-methoxy-2-methylindole-3-ethyl-(2-phenyl)ethylamide [Compound 9i] | – | – | – | IC50 (ovine COX-1; read-out: IC50 COX-1, inventive amides table): ~17000 nM; Selectivity (human COX-2; inventive amides table): ~ 425; IC50 (human COX-2; read-out: IC50 COX-2, inventive amides table): ~40 nM |
| COc1ccc(C(=O)OCCc2c(C)n(C(=O)c3ccc(Cl)cc3)c3ccc(OC)cc23)cc1 [Compound 5c, N-(p-chlorobenzoyl)-5-methoxy-2-methylindole-3ethylo-(p-methoxy)benzoate] | > 66000 nM | 40 nM | > 1466 | inhibition of production of PGD2 [1]: inhibition of production of PGD2; inhibition of edema in the rat footpad [2]: inhibition of edema in the rat footpad |
| COc1ccc2c(c1)c(CCOC(=O)c1ccc(I)cc1)c(C)n2C(=O)c1ccc(Cl)cc1 [Compound 5g, N-(phlorobenzoyl)-5-methoxy-2-methylindole-3-ethyl(-p-iodo)benzoate] | > 66000 nM | 50 nM | > 1320 | – |
| COc1ccc2c(c1)c(CCOC(=O)c1ccc(Br)cc1)c(C)n2C(=O)c1ccc(Cl)cc1 [Compound 5f, N-(p-Chlorobenzoyl)-5-methoxy-2-methylindole-3-ethyl-(p-bromo)benzoate] | > 66000 nM | 40 nM | > 1466 | – |
| COc1ccc2c(c1)c(CCOC(=O)c1ccc(Cl)cc1)c(C)n2C(=O)c1ccc(Cl)cc1 [Compound 5e, N -(p-chlorobenzoyl)-5-methoxy-2-methylindole-3-ethyl-(p-chloro)benzoate] | > 66000 nM | 50 nM | > 1320 | inhibition of production of PGD2 [1]: inhibition of production of PGD2 |
| COc1ccc2c(c1)c(CCOC(=O)c1ccc(Cl)cc1)c(C)n2Cc1ccc(Br)cc1 [Compound 5h, N-(p-bromobenzyl)-5-methoxy-2-methylindole-3-ethyl-(p-chloro)benzoate] | > 66000 nM | – | – | – |
| COc1ccc2c(c1)c(CCOC(=O)c1ccccc1OC)c(C)n2C(=O)c1ccc(Cl)cc1 [Compound 5d, N-(pchlorobenzoyl)-5-methoxy-2-methylindole-3thyl-(o-methoxy)benzoate] | > 66000 nM | 50 nM | > 1320 | – |

Further lines, with some results ahead:

| IC50 (ovine COX-1) | IC50 (human COX-2) | Selectivity (human COX-2; Table 1 esters) | Compound | also measured |
| --- | --- | --- | --- | --- |
| 4000 nM | 50 nM | – | COc1ccc2c(c1)c(CCNC(=O)c1ccc(Cl)cc1)c(C)n2C(=O)c1ccc(Cl)cc1 [Compound 9e, N-(p-chlorobenzoyl)-5-methoxy-2-methylindole-3-ethyl-(p-chloro)benzamide] | inhibition of production of PGD2 [1]: inhibition of production of PGD2; inhibition of edema in the rat footpad [2]: inhibition of edema in the rat footpad; Selectivity (human COX-2; inventive amides table): 80 |
| > 66000 nM | – | – | COc1ccc2c(c1)c(CCNC(=O)c1ccc(Cl)cc1)c(C)n2Cc1ccc(Br)cc1 [Compound 9h, N-(p-bromobenzyl)-5-methoxy-2-methylindole-3-ethyl(p-chloro) benzamide] | – |
